Four molecules from US20230233583A1, “USE OF PHYTOCANNABINOIDS FOR TREATING MULTIPLE MYELOMA” (priority 2020, published 2023) can be followed below.

Molecules are shown by their SMILES.

The subject of data set [1] is RPMI. In words: MTT cytotoxicity assay in RPMI MM cell line. The note with it: for IC50: Homo sapiens, 72 h, read-out: IC50 (μM) ± S.D.; for % VIABILITY ± S.D.: RPMI, daily, 72 hours, vs vehicle. The procedure: MTT cytotoxicity assay: MM cell lines (4×10^4 cells/ml) were seeded in 96-well plates, in a final volume of 100 μl/well. After 24 hours, CBG, CBC, CBN, CBDV alone and in combination or vehicle were added at different concentrations, for 72 hours. At least six replicates were used for each treatment. At the indicated time point, cell viability was assessed by adding 0.8 mg/ml of 3-[4,5-dimethylthiazol-2-yl]-2,5 diphenyl tetrazolium bromide (MTT) (Sigma-Aldrich) to the media. After 3 hours, the plates were centrifuged, the supernatant was removed, and the pellet was solubilized with 100 μl/well dimethyl sulfoxide (DMSO). The absorbance of the samples against a background control (medium alone) was measured at 570 nm using an ELISA reader microliter plate (BioTek™ Instruments, Winooski, Vt., USA).
Cells were treated with different doses of CBG, CBC, CBN and CBDV (up to 100 μM) and percentage of cell viability was evaluated by the MTT assay.
The cannabinoids were administered daily for 72 hours, as in previous experiments at the desired doses. Each combination was evaluated in six wells and in two separate experiments. MTT assay was used to analyze the cell cytotoxicity. The values in the tables are represented as % of cell viability compared to vehicle-treated cells.
(In general: Tetrazolium assays rely on reduction of a dye to a coloured formazan, in cell work by metabolically active cells.)

Data set [2] in a line: in vitro. Format: cell-based, human. As to conditions: human, HuOB, daily, 72 hours, vs vehicle, read-out: % VIABILITY ± S.D.; for viability at 72 h, 12.5 μM: single phytocannabinoid 12.5 μM; for viability at 72 h, 25 μM: single phytocannabinoid 25 μM. The procedure:
(§1) At least six replicates were used for each treatment.
(§2) Cell culture: The HuOB, an immortalized human osteoblast cell line derived from femoral head (INS-CI-1005, Inscreeex GmbH, Germany) was grown in HuOB Maintenance Medium (INS-ME-1006).
(§3) IC50 values, relative to daily administration, were obtained. The efficacy in reducing cell viability was generally highest for CBDV, followed by CBN, CBC and CBG.
(§4) Phytocannabinoid combinations in HuOB cell line viability: Before setting up the co-culture experiments with HuOB and MM cell lines, the less cytotoxic doses of phytocannabinoid combinations were evaluated in HuOB. […] The standard deviation of the data reported was <10%. […] Additionally, a triple combination with CBG, CBC and CBN at 12.5 μM for each phytocannabinoid, was performed (Table 9).

In data set [3] the test system is HuOB cell line. Put plainly: cells. Format: cell-based, human. The note with it: for IC50: Homo sapiens, 72 h, read-out: IC50 (μM) ± S.D. The procedure:
as §1, §2, §3, §4

Data set [4] concerns U266. Put plainly: Invasion assay in co-culture of HuOB and U266. The note with it: 24 hours; for AVERAGE OF CELLS/square (MM cells that invaded the Matrigel): U266 + HuOB co-culture, CBG, CBC, CBN 12.5 μM, CBDV 6.25 μM or 25 μM and 12.5 μM, untreated U266 + HuOB 14.2 ± 0.9; for effect on MM cell invasion, in words: U266 in co-culture with HuOB. It is filed as cell-based, human. Here is the method: Invasion assay: HuOB cells (1.5×10^4) were plated on the surface of Matrigel in a BioCoat™ Matrigel® Invasion Chamber, 8.0 μm PET Membrane (Coming®, cod. 354480) and incubated for two days. After, U266 and RPMI (2.5×10^4) were pre-stained with Calcein (1 μM) for two hours, then treated with CBG (12.5 μM), CBC (12.5 μM), CBN (12.5 μM) and CBDV (6.25 μM) and added in the chambers. MM cells with HuOB, untreated, were used as invasion positive control, MM cells without HuOB cells were used as negative control. After 24 hours, the number of MM cells that invaded the Matrigel were analysed via fluorescent microscope. Eight 10× sections images were counted for each chamber.
Invasion assay in co-culture of HuOB and MM cell lines: This study evaluated the effect of phytocannabinoids in reducing the invasion of MM cell lines toward HuOB. HuOB were plated on the surface of Matrigel in the BioCoat™ Matrigel® Invasion Chamber, 8.0 μm PET Membrane (Corning®, cod. 354480) and incubated for two days. After, U266 or RPMI were pre-stained with Calcein (10 μM) for two hours, then treated with CBG (25 μM), CBC (25 μM), CBN (25 μM) and CBDV (12.5 μM) and added in the chambers. MM cells with HuOB, untreated, were used as an invasion positive control, MM cells without HuOB cells were used as a negative control. After 24 hours, the number of MM cells that invaded the Matrigel were analysed via fluorescent microscope. Eight 10× sections images were counted for each chamber.

Data set [5] relates to MM cell lines U266, SKO and RPMI. In words: Annexin-V/PI staining, FACS analysis. As to conditions: 48 hours, daily, CBG, CBN, CBDV 25 μM, CBC 75 μM. Format: cell-based, human. Here is the method: Cell lines were treated for 48 hours with CBG (25 μM), CBN (25 μM), CBDV (25 μM) or CBC (75 μM) and the percentage of Annexin-V/PI positive cells were determined by FACS analysis. Values in overlays on each plot: upper left=necrotic cells; upper right=late death cells (both apoptotic and necrotic); lower left=live cells; and lower right=apoptotic cells. Data for each phytocannabinoid (lower plots in each Figure) expressed as percentage of PI positive cells with respect to vehicle treated cells (upper plots in each Figure).
Apoptosis assays and PI staining: Cell death was evaluated using the Annexin V-FITC Apoptosis detection Kit (eBioscience) followed by biparametric fluorescence-activated cell sorting (FACS) analysis. Cells, at a density of 4×10^4 cells/ml, were treated with CBG, CBC, CBN or CBDV for a maximum of 48 hours, with daily administration, and then incubated with Annexin V-FITC and propidium iodide (PI), following the protocol provided. The percentage of positive cells determined over 10,000 events was analysed on a FACScan cytofluorimeter using the CellQuest software.
Phytocannabinoids induce necrotic cell death in MM cell lines: To evaluate the cytotoxic mechanism induced by the phytocannabinoids, MM cell lines were treated daily with a cytotoxic dose for each phytocannabinoid (CBG: 25 μM; CBC 75 μM; CBN 25 μM; CBDV 25 μM) for 48 hours and then Annexin-V/PI cell positivity was evaluated by FACS analysis. The results evidenced that all of the phytocannabinoids induced necrotic cell death but had different efficacies (FIGS. 5-16). To confirm the necrotic cell death mechanism, MM cell lines were treated as above and DNA damage was evaluated by H2AX (a marker to examine the DNA damage produced and the subsequent repair of the DNA lesion) Western blot analysis and Comet assay (permits the analysis of DNA damage in single cell preparations). The result confirmed the DNA damage induced by the phytocannabinoid analysed. In particular, an increase of H2AX levels were observed by Western blot (FIGS. 17-20) and DNA damage by Comet assay that evidenced structures resembling comets in the treated cell lines (FIGS. 21-24).
(A flow cytometer gives signals particle by particle.)

Where [6] appears, read: single phytocannabinoid 12.5 μM.

One may read the IC50 as the concentration that inhibits the measured activity by half. What is called viability is a read-out of living cells in per cent, often relative to untreated cells. Regarding `CCCCCc1cc(O)c2c(c1)OC(C)(CCC=C(C)C)C=C2` (centres unmarked) [CBC, 2-methyl-2-(4-methylpent-3-enyl)-7-pentylchromen-5-ol], the IC50 in data set [1] was 49.6 ± 2.1 µM; in data set [3], 42.4 ± 1.05 µM. Also, the “% VIABILITY ± S.D.” value worked out at 104.9 ± 3.6% in data set [1] (setting [6]) and 98.3 ± 5.1% in data set [1] (single phytocannabinoid 25 μM). Further, in data set [2], the viability at 72 h, 12.5 μM is 100 ± 8.3%. In data set [2], the viability at 72 h, 25 μM is 99.8 ± 8.1%. Also, the “AVERAGE OF CELLS/square (MM cells that invaded the Matrigel)” value (“AVERAGE OF CELLS/square” below) in data set [4] is 12.5 ± 1.1 CELLS/square. Also, the “necrotic cell death (Annexin-V/PI positive cells), in words” value (shortened to “necrotic cell death”) in data set [5] is on record as “induce necrosis”.

In the case of `C=C(C)[C@@H]1CCC(C)=C[C@H]1c1c(O)cc(CCC)cc1O` [CBDV, 2-[(1R,6R)-3-methyl-6-prop-1-en-2-ylcyclohex-2-en-1-yl]-5-propylbenzene-1,3-diol], the IC50 in data set [1] stood at 21.7 ± 1.1 µM; in data set [3], 14.3 ± 1 µM. Also, the “% VIABILITY ± S.D.” value in data set [1] (setting [6]) was found to be 70.2 ± 5.3%; in data set [1] (single phytocannabinoid 25 μM) it was 40.2 ± 2.4%. In addition, the viability at 72 h, 12.5 μM in data set [2] is 72.1 ± 5.8%. The viability at 72 h, 25 μM in data set [2] is 21.2 ± 1.1%. Further, the “cytotoxicity in HuOB cell line, in words” value in data set [3] (HuOB, 72 hours, daily administration) is recorded as “high cytotoxicity”. Also, the “AVERAGE OF CELLS/square” value in data set [4] was 11.2 ± 1.1 CELLS/square. Also, the “necrotic cell death” value in data set [5] is on record as “induce necrosis”.

As for `CCCCCc1cc(O)c(C/C=C(\C)CCC=C(C)C)c(O)c1` [CBG, 2-[(2E)-3,7-dimethylocta-2,6-dienyl]-5-pentylbenzene-1,3-diol], the IC50 in data set [1] is 31.4 ± 1.9 µM. Besides, in data set [1] (setting [6]), the “% VIABILITY ± S.D.” value was determined as 99.3 ± 8.2%. Moreover, the “% VIABILITY ± S.D.” value in data set [1] (single phytocannabinoid 25 μM) came to 69.1 ± 5.5%. For the same molecule, in data set [2], the viability at 72 h, 12.5 μM was 104 ± 8.2% and the viability at 72 h, 25 μM came to 96.4 ± 7.3%. For the same molecule, the IC50 in data set [3] came out at 44.8 ± 1.04 µM. Further, in data set [4], the “AVERAGE OF CELLS/square” value was found to be 3.2 ± 0.2 CELLS/square and the “effect on MM cell invasion, in words” value is “higher activity”. Besides, the “necrotic cell death” value in data set [5] is recorded as “induce necrosis”.

Consider `CCCCCc1cc(O)c2c(c1)OC(C)(C)c1ccc(C)cc1-2` [CBN, 6,6,9-trimethyl-3-pentylbenzo[c]chromen-1-ol], for which the IC50 was determined as 23.6 ± 0.9 µM in data set [1] and 29 ± 3.07 µM in data set [3]. The “% VIABILITY ± S.D.” value in data set [1] (setting [6]) turned out to be 102.6 ± 7.4%; in data set [1] (single phytocannabinoid 25 μM), 81.1 ± 7.7%. In addition, the viability at 72 h, 12.5 μM in data set [2] came to 117 ± 7.7%. Also, the viability at 72 h, 25 μM in data set [2] is 81.7 ± 7.7%. In addition, the “AVERAGE OF CELLS/square” value in data set [4] was determined as 7.0 ± 0.2 CELLS/square. The “effect on MM cell invasion, in words” value in data set [4] is listed as “higher activity”. Also, the “necrotic cell death” value in data set [5] was “induce necrosis”.
